In patent publication US20130023555A1, “KINASE INHIBITOR WITH IMPROVED SOLUBILITY PROFILE” (Abbott Laboratories, priority 2011, published 2013):

What was measured:
[1] = target: T1, Aurora B (Homo sapiens, UniProt Q96GD4); test: Aurora B enzyme assay (time-resolved fluorescence); assay type: biochemical; conditions: 1 mM ATP, with INCENP
T1 construct: Active Aurora B enzyme (recombinant residues 1-344)
Experimental: (§1) After 1 hour, the reaction was stopped with EDTA and anti-phospho-histone H3 Europium Cryptate (Cis-Bio) and SA-APC (Phycolink, Prozyme) were added to detect the phosphopeptide. The amount of phosphorylation was determined by the time-resolved fluorescence ratio of signals at 665 nm and 615 nm. The IC50's were calculated by an exponential fit of the inhibition values with the inhibitor concentrations using Assay Explorer software.

[2] = target: T2, FLT1 (Homo sapiens, UniProt P17948); test: HTRF in vitro kinase assay, FLT1; assay type: biochemical; conditions: 1 mM ATP
T2 construct: His6
T2 sequence (P17948 786-1338 limits assumed): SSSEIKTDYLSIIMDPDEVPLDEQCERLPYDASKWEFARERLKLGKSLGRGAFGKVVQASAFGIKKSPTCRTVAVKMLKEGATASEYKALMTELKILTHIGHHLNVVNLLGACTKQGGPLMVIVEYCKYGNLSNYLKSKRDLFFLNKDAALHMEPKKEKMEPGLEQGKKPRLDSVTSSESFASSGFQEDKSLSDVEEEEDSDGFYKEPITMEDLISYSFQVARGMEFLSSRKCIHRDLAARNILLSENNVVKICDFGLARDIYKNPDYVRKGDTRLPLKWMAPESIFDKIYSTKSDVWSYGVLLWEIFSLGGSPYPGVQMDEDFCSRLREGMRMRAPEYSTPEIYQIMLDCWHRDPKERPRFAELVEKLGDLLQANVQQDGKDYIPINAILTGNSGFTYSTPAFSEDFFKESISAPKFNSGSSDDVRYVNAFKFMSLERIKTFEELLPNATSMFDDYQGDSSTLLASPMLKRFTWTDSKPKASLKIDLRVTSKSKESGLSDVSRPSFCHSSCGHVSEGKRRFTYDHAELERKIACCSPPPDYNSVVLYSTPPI
Experimental: (§2) To determine the activity of the various kinases, a homogenous time-resolved fluorescence (HTRF) in vitro kinase assay was used. (Mathis, G., HTRF(R) Technology. J Biomol Screen, 1999. 4(6): p. 309-314; Alfred J. Kolb, Paul V. Kaplita, David J. Hayes, Young-Whan Park, Christine Pernell, John S. Major and Gerard Mathis, Drug Discovery Today, 1998, 3, 333-342.)
(§3) For example for KDR, cKIT, FLT1, CSF1R and FTL3, purified enzyme was mixed with 0.5 μM N-biotinylated substrate (Biotin-Ahx-[…]-amide (SEQ. ID. 1)), various concentrations of inhibitor in reaction buffer (50 mM HEPES, pH 7.1, 10 mM MgCl2, 2 mM MnCl2, 0.1% BSA and 1 mM DTT, 40 μL final volume), ATP (1 mM final conc.) in a black 384-well plate. […] The quenched reaction was allowed to stand at room temperature for 3 hours and was then read in a time-resolved fluorescence detector (InVision, Perkin-Elmer) at 620 nm and 665 nm sequentially with excitation. The ratio between the signal of 620 nm and 665 nm was used in the calculation of the IC50.

[3] = target: T3, KDR (Homo sapiens, UniProt P35968); test: HTRF in vitro kinase assay, KDR; assay type: biochemical; conditions: 1 mM ATP
T3 construct: KDR 789- 1354; His6 (N)
Experimental: as §2, §3

[4] = target: T4, CYP3A4 (Homo sapiens, UniProt P08684); test: CYP 3A4 Assay (Luc, luminescence, human liver microsomes); assay type: in vitro ADME; conditions: human liver microsomes 0.4 mg/mL, substrate LUC-LIPA
T4 construct: The incubations consisted of human liver microsomal protein at 0.4 mg/ml; from tissue; host or cells: human liver microsomes
Experimental: Each assay was preformed in ½ well plates. Test compounds were examined at six concentrations in DMSO that were serial diluted to: 2, 0.6, 0.2, 0.07, 0.02, and 0.007 mM (from left to right) and at 100×; 0.5 ul of these dilutions were added to two empty assay plates (resulting in final assay concentrations of 20, 6, 2, 0.7, 0.2, and 0.07 uM. The control and vehicle were added to the plate at 100× with the same dilution scheme.
The incubations consisted of human liver microsomal protein at 0.4 mg/ml in 100 mM KPO4 buffer, 125 uM NADPH and Regeneration mix in phosphate buffer at pH 7.4.
CYP3A4 requires a pre-incubation using the following recipe:
• CYP3A4—5 μM LUC-LIPA in 100 mM phosphate buffer pH 7.4 • Assay Procedure for CYP3A4: • 1. 40 uL of the Pre-incubation Mixture was added to all wells of the assay plates. • 2. Plates were pre-incubated for 10 minutes at 37° C., with shaking or rocking. (No pre-read is necessary for the luminescence assays CYP2C9 and CYP3A4). • 3. 10 μL of Substrate Solution was added to all wells of the assay plates. • 4. Plates were incubated for an additional 25 minutes at 37° C., with shaking or rocking. • 5. added 50 μl of stop/developer from respective kits, and incubated for 20 minutes to 2 hours with shaking at room temperature prior to reading. […]

[5] = target: T5, Aurora A (Homo sapiens, UniProt O14965); test: Aurora A enzyme assay (time-resolved fluorescence); assay type: biochemical; conditions: 1 mM ATP
T5 sequence (O14965 1-403): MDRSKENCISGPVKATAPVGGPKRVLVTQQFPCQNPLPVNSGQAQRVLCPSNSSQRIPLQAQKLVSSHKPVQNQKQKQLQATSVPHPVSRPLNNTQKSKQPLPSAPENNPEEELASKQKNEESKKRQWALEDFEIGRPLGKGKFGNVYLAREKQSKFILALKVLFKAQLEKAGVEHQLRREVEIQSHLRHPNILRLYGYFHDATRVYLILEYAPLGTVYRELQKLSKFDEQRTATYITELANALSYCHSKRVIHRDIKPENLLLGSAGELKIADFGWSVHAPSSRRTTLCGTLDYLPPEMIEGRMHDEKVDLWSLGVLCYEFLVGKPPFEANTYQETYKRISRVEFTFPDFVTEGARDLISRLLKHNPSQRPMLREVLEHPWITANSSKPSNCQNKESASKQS
Experimental: as §1, with “anti-phospho-STK antibody” for “anti-phospho-histone H3”, “(Upstate)” for “(Cis-Bio)”, “SA-XL665 (Upstate)” for “SA-APC (Phycolink, Prozyme)”, “IC50s” for “IC50's”

T1 sequence (Q96GD4 whole entry, the tested form may be a part): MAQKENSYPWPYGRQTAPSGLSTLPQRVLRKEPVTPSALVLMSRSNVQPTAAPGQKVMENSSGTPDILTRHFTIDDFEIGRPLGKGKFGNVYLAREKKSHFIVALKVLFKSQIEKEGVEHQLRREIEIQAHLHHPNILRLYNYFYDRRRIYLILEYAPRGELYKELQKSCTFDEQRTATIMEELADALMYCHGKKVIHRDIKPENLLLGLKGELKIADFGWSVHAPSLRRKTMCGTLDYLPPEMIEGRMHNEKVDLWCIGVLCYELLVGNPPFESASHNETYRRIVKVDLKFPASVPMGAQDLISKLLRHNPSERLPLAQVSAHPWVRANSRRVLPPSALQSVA
T1 sequence (Q9NQS7 803-918 partner limits assumed): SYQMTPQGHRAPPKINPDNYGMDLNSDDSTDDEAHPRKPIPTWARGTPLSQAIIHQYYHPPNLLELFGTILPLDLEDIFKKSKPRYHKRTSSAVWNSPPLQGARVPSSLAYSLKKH
T4 sequence (P08684 whole entry): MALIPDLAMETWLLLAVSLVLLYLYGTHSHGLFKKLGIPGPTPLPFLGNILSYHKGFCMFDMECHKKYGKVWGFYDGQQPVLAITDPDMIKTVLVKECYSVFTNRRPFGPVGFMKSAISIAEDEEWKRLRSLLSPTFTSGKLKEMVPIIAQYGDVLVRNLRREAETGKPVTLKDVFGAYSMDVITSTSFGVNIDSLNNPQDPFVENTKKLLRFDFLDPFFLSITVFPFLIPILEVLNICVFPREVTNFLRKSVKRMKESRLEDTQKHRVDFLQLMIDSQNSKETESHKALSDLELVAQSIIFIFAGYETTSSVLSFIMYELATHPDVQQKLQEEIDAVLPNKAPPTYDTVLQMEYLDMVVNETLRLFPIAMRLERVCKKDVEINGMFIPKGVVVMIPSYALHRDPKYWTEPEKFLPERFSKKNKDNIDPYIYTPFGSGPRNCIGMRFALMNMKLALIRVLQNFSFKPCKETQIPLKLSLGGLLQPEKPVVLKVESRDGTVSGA
T3 sequence (P35968 789-1354): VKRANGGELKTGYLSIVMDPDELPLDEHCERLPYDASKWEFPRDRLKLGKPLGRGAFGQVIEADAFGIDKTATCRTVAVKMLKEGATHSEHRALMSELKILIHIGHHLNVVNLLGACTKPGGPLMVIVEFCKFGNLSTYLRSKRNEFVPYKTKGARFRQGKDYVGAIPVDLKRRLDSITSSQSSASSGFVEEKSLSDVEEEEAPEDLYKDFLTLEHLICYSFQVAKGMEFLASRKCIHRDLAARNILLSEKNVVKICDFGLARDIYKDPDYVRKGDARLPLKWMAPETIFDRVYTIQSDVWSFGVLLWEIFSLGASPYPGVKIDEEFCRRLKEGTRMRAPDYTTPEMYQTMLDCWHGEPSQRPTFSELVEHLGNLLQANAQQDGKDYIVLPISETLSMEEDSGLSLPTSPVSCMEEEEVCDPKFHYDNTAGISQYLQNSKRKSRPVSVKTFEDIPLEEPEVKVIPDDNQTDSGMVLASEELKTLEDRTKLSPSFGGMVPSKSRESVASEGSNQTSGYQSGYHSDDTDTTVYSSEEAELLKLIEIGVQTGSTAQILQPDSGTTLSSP

SMILES: CNC(=O)c1cnc(N)c2c(-c3ccc(NC(=O)Nc4cccc(C)c4)cc3)csc12 [Example 2, 4-amino-N-methyl-3-(4-{[(3-methylphenyl)carbamoyl]amino}phenyl)thieno[3,2-c]pyridine-7-carboxamide]
- IC50 [1]: 1.3 nM
- IC50 [2]: 2 nM
- IC50 [3]: 2 nM
- IC50 [4]: > 20 µM
- IC50 [5]: 58 nM
